Assay results published in ChEMBL document CHEMBL2010767, “Agonists for the Chemokine Receptor CXCR4” (ACS Med Chem Lett, 2011).
Active and inactive are the calls of the source. The rule behind the calls is not given here.

Tests used:
[1] = biological target: T1, C-X-C chemokine receptor type 4 (Homo sapiens, UniProt P61073); assay: Agonist activity at CXCR4 receptor in human REH cells assessed as induction of chemotactic migration at 10 nM after 3 hrs; assay type: functional, cell-based
[2] = biological target: T1, C-X-C chemokine receptor type 4; assay: Displacement of [125I]-SDF-1alpha from human CXCR4 receptor expressed in HEK293 cells after 1 hr by gamma counting; assay type: cell-based
[3] = biological target: T1, C-X-C chemokine receptor type 4; assay: Antagonist activity at CXCR4 receptor in human REH cells assessed as inhibition of SDF-1alpha-induced chemotactic migration after 3 hrs; assay type: functional, cell-based

T1 sequence (P61073 whole entry): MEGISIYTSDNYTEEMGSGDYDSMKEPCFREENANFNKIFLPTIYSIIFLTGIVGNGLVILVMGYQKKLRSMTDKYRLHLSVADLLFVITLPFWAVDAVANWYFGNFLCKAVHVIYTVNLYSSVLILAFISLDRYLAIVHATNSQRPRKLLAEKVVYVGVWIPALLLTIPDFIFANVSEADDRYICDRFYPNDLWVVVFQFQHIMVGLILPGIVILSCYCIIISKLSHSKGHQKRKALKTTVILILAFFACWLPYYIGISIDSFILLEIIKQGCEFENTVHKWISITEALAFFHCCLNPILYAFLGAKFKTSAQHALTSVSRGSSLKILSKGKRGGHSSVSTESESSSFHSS

SMILES	Activity [1]	IC50 [2]	Activity [3]
CC(C)C[C@H](NC(=O)[C@H](CO)NC(=O)[C@@H](NC(=O)[C@@H]1CCCN1C(=O)[C@@H](N)CCCCN)C(C)C)C(=O)N[C@@H](CO)C(=O)N[C@@H](Cc1ccc(O)cc1)C(=O)N[C@@H](CCCNC(=N)N)C(=O)N[C@@H](CO)C(=O)NCCCC[C@H](NC(=O)[C@@H]1CSSC[C@H](NC(=O)[C@H](Cc2ccc3ccccc3c2)NC(=O)[C@H](CCCNC(=N)N)NC(=O)[C@@H](N)CCCNC(=N)N)C(=O)N[C@@H](Cc2ccc(O)cc2)C(=O)N[C@@H](CCCNC(=N)N)C(=O)N[C@@H](CCCCN)C(=O)N[C@H](CCCCN)C(=O)N2CCC[C@H]2C(=O)N[C@@H](Cc2ccc(O)cc2)C(=O)N[C@@H](CCCNC(=N)N)C(=O)N[C@@H](CCCNC(=N)N)C(=O)C1)C(=O)O	Active		
CC(C)C[C@H](NC(=O)[C@H](CO)NC(=O)[C@@H](NC(=O)[C@@H]1CCCN1C(=O)[C@@H](N)CCCCN)C(C)C)C(=O)N[C@@H](CO)C(=O)N[C@@H](Cc1ccc(O)cc1)C(=O)N[C@@H](CCCNC(=N)N)C(=O)N[C@@H](CO)C(=O)N[C@@H](C)C(=O)NCCCC[C@H](NC(=O)[C@@H]1CSSC[C@H](NC(=O)[C@H](Cc2ccc3ccccc3c2)NC(=O)[C@H](CCCNC(=N)N)NC(=O)[C@@H](N)CCCNC(=N)N)C(=O)N[C@@H](Cc2ccc(O)cc2)C(=O)N[C@@H](CCCNC(=N)N)C(=O)N[C@@H](CCCCN)C(=O)N[C@H](CCCCN)C(=O)N2CCC[C@H]2C(=O)N[C@@H](Cc2ccc(O)cc2)C(=O)N[C@@H](CCCNC(=N)N)C(=O)N[C@@H](CCCNC(=N)N)C(=O)C1)C(=O)O	Active		
CC(C)C[C@H](NC(=O)[C@H](CO)NC(=O)[C@@H](NC(=O)[C@@H]1CCCN1C(=O)[C@@H](N)CCCCN)C(C)C)C(=O)N[C@@H](CO)C(=O)N[C@@H](Cc1ccc(O)cc1)C(=O)NCCCC[C@H](NC(=O)[C@@H]1CSSC[C@H](NC(=O)[C@H](Cc2ccc3ccccc3c2)NC(=O)[C@H](CCCNC(=N)N)NC(=O)[C@@H](N)CCCNC(=N)N)C(=O)N[C@@H](Cc2ccc(O)cc2)C(=O)N[C@@H](CCCNC(=N)N)C(=O)N[C@@H](CCCCN)C(=O)N[C@H](CCCCN)C(=O)N2CCC[C@H]2C(=O)N[C@@H](Cc2ccc(O)cc2)C(=O)N[C@@H](CCCNC(=N)N)C(=O)N[C@@H](CCCNC(=N)N)C(=O)C1)C(=O)O	Active	38.6 nM	
CC(C)C[C@H](NC(=O)[C@H](CO)NC(=O)[C@@H](NC(=O)[C@@H]1CCCN1C(=O)[C@@H](N)CCCCN)C(C)C)C(=O)N[C@@H](CO)C(=O)N[C@@H](Cc1ccc(O)cc1)C(=O)NCCCC[C@@H]1NC(=O)[C@H](CCCNC(=N)N)NC(=O)[C@H](Cc2ccc(O)cc2)NC(=O)[C@@H]2CCCN2C(=O)[C@@H](CCCCN)NC(=O)[C@H](CCCCN)NC(=O)[C@H](CCCNC(=N)N)NC(=O)[C@H](Cc2ccc(O)cc2)NC(=O)[C@@H](NC(=O)[C@H](Cc2ccc3ccccc3c2)NC(=O)[C@H](CCCNC(=N)N)NC(=O)[C@@H](N)CCCNC(=N)N)CSSC[C@@H](C(=O)N[C@@H](CCCNC(=N)N)C(=O)O)CC1=O		2.22 nM	Active
CC(C)C[C@H](NC(=O)[C@H](CO)NC(=O)[C@@H](NC(=O)[C@@H]1CCCN1C(=O)[C@@H](N)CCCCN)C(C)C)C(=O)N[C@@H](CO)C(=O)N[C@@H](Cc1ccc(O)cc1)C(=O)N[C@@H](CCCNC(=N)N)C(=O)NCCCC[C@@H]1NC(=O)[C@H](CCCNC(=N)N)NC(=O)[C@H](Cc2ccc(O)cc2)NC(=O)[C@@H]2CCCN2C(=O)[C@@H](CCCCN)NC(=O)[C@H](CCCCN)NC(=O)[C@H](CCCNC(=N)N)NC(=O)[C@H](Cc2ccc(O)cc2)NC(=O)[C@@H](NC(=O)[C@H](Cc2ccc3ccccc3c2)NC(=O)[C@H](CCCNC(=N)N)NC(=O)[C@@H](N)CCCNC(=N)N)CSSC[C@@H](C(=O)N[C@@H](CCCNC(=N)N)C(=O)O)CC1=O			Active
